# From PubChem BioAssay AID1919016 (Molecular Pharmacology Branch, DTP, NCI, 2023)
# Values joined by “and” are separate entries in the source; they are usually repeats but may differ in a detail not shown here. Equal values may be shown once.
# System: NCI-H196 complex spheroid growth, percent test/control
# Assay: Anticancer human tumor NCI-H196 cell line growth inhibition [AhR];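 further: seven days of drug exposure starting three days after plating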;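 on viability, T/C: 100% = DMSO vehicle control wells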
# Conditions: for viability, T/C: stronger effect = lower value
# Procedure, shortened: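 Spheroids combined tumor cells with HUVEC endothelial cells and human MSCs as stroma. AhR antagonists were paired with standard or investigational drugs, each dosed in half-log steps down from near clinical Cmax, or from 10 microM where Cmax was unknown.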
# [1] = curve of first compound, second compound 0.1 µM
# [2] = curve of first compound, second compound 0.316 µM
# [3] = curve of first compound, second compound 1 µM
# [4] = curve of first compound, second compound 3.16 µM
# [5] = curve of first compound, second compound 10 µM
# [6] = second compound 0.1 µM, first compound 0.0316 µM
# [7] = second compound 0.1 µM, first compound 0.1 µM
# [8] = second compound 0.1 µM, first compound 0.316 µM
# [9] = second compound 0.1 µM, first compound 1 µM
# [10] = second compound 0.1 µM, first compound 3.16 µM
# [11] = second compound 0.1 µM, first compound 10 µM
# [12] = second compound 0.316 µM, first compound 0.0316 µM
# [13] = second compound 0.316 µM, first compound 0.1 µM
# [14] = second compound 0.316 µM, first compound 0.316 µM
# [15] = second compound 0.316 µM, first compound 1 µM
# [16] = second compound 0.316 µM, first compound 3.16 µM
# [17] = second compound 0.316 µM, first compound 10 µM
# [18] = second compound 1 µM, first compound 0.0316 µM
# [19] = second compound 1 µM, first compound 0.1 µM
# [20] = second compound 1 µM, first compound 0.316 µM
# [21] = second compound 1 µM, first compound 1 µM
# [22] = second compound 1 µM, first compound 3.16 µM
# [23] = second compound 1 µM, first compound 10 µM
# [24] = second compound 3.16 µM, first compound 0.0316 µM
# [25] = second compound 3.16 µM, first compound 0.1 µM
# [26] = second compound 3.16 µM, first compound 0.316 µM
# [27] = second compound 3.16 µM, first compound 1 µM
# [28] = second compound 3.16 µM, first compound 3.16 µM
# [29] = second compound 3.16 µM, first compound 10 µM
# [30] = second compound 10 µM, first compound 0.0316 µM
# [31] = second compound 10 µM, first compound 0.1 µM
# [32] = second compound 10 µM, first compound 0.316 µM
# [33] = second compound 10 µM, first compound 1 µM
# [34] = second compound 10 µM, first compound 3.16 µM
# [35] = second compound 10 µM, first compound 10 µM
# [36] = second compound 0.1 µM, first compound 0.00316 µM
# [37] = second compound 0.1 µM, first compound 0.01 µM
# [38] = second compound 0.316 µM, first compound 0.00316 µM
# [39] = second compound 0.316 µM, first compound 0.01 µM
# [40] = second compound 1 µM, first compound 0.00316 µM
# [41] = second compound 1 µM, first compound 0.01 µM
# [42] = second compound 3.16 µM, first compound 0.00316 µM
# [43] = second compound 3.16 µM, first compound 0.01 µM
# [44] = second compound 10 µM, first compound 0.00316 µM
# [45] = second compound 10 µM, first compound 0.01 µM
Compound,IC50 [1] [nM],IC50 [2] [nM],IC50 [3] [nM],IC50 [4] [nM],IC50 [5] [nM],"viability, T/C [6] [%]","viability, T/C [7] [%]","viability, T/C [8] [%]","viability, T/C [9] [%]","viability, T/C [12] [%]","viability, T/C [13] [%]","viability, T/C [14] [%]","viability, T/C [15] [%]","viability, T/C [18] [%]","viability, T/C [19] [%]","viability, T/C [20] [%]","viability, T/C [24] [%]","viability, T/C [25] [%]","viability, T/C [30] [%]","viability, T/C [31] [%]",other results
Nc1ccn(C2OC(CO)C(O)C2(F)F)c(=O)n1 (configuration not stated) + Cc1ccccc1N=Nc1ccc(NC(=O)c2ccnn2C)c(C)c1,> 10000,> 10000,> 10000,> 10000,> 10000,88.8,85.5,53.4,52.1,91.4,88.2,58.7,54,88.7,90.4,62.5,93.3,91.3,85.2,90.8,"viability, T/C [10]: 57.6%; viability, T/C [11]: 59.6%; viability, T/C [16]: 54.5%; viability, T/C [17]: 60.1%; viability, T/C [21]: 53.2%; viability, T/C [22]: 56.1%; viability, T/C [23]: 60.2%; viability, T/C [26]: 62.7%; viability, T/C [27]: 57.1%; viability, T/C [28]: 55%; viability, T/C [29]: 55.9%; viability, T/C [32]: 75.9%; viability, T/C [33]: 61.9%; viability, T/C [34]: 60.1%; viability, T/C [35]: 64.3%"
Nc1ccn(C2OC(CO)C(O)C2(F)F)c(=O)n1 (configuration not stated),,,,,,,,,,,,,,,,,,,,,"viability, T/C (compound 0.0316 µM): 72.3% and 95.5% and 90.8%; viability, T/C (compound 0.1 µM): 57.2% and 87.9% and 86.6%; viability, T/C (compound 0.316 µM): 46.1% and 58.9% and 65.1%; viability, T/C (compound 1 µM): 50.2% and 56.8% and 62.2%; viability, T/C (compound 3.16 µM): 61.4% and 61.8% and 66.2%; viability, T/C (compound 10 µM): 56.5% and 68.2% and 66.8%; IC50 (curve of compound): 10000 nM and > 10000 nM"
Nc1ccn(C2OC(CO)C(O)C2(F)F)c(=O)n1 (configuration not stated) + CC(CO)NC(=O)c1cc(-c2ccc(Cl)cc2)nn(-c2cnn(C)c2)c1=O,> 10000,> 10000,> 10000,> 10000,> 10000,94,93.3,67.5,60.2,101,98,67.9,65.1,92.9,86.6,75.1,98.3,96.4,105,101,"viability, T/C [10]: 65.2%; viability, T/C [11]: 63.1%; viability, T/C [16]: 62%; viability, T/C [17]: 63.7%; viability, T/C [21]: 60.7%; viability, T/C [22]: 61.1%; viability, T/C [23]: 69.8%; viability, T/C [26]: 69.9%; viability, T/C [27]: 61.3%; viability, T/C [28]: 59.7%; viability, T/C [29]: 70.3%; viability, T/C [32]: 78%; viability, T/C [33]: 73.1%; viability, T/C [34]: 66.8%; viability, T/C [35]: 73.2%"
Nc1ncn(C2CC(O)C(CO)O2)c(=O)n1 (configuration not stated) + Cc1cncc(-c2nc(NCCc3c[nH]c4ccccc34)c3ncn(C(C)C)c3n2)c1,> 1000,> 1000,> 1000,> 1000,> 1000,104,97.9,107,99.8,114,104,105,105,115,96.3,117,109,111,104,89.6,"viability, T/C [36]: 110%; viability, T/C [37]: 105%; viability, T/C [38]: 106%; viability, T/C [39]: 98.5%; viability, T/C [40]: 122%; viability, T/C [41]: 106%; viability, T/C [21]: 103%; viability, T/C [42]: 102%; viability, T/C [43]: 112%; viability, T/C [26]: 108%; viability, T/C [27]: 109%; viability, T/C [44]: 96.2%; viability, T/C [45]: 86.9%; viability, T/C [32]: 87.8%; viability, T/C [33]: 86.1%"

# The next lines start with results.
IC50 [1] [nM],IC50 [2] [nM],IC50 [3] [nM],IC50 [4] [nM],IC50 [5] [nM],Compound,"viability, T/C [6] [%]","viability, T/C [7] [%]","viability, T/C [8] [%]","viability, T/C [9] [%]","viability, T/C [12] [%]","viability, T/C [13] [%]","viability, T/C [14] [%]","viability, T/C [15] [%]","viability, T/C [18] [%]","viability, T/C [19] [%]","viability, T/C [20] [%]","viability, T/C [24] [%]","viability, T/C [25] [%]","viability, T/C [30] [%]","viability, T/C [31] [%]",other results
478,614,540,651,591,Nc1ccccc1NC(=O)c1ccc(CNC(=O)OCc2cccnc2)cc1 + Cc1cncc(-c2nc(NCCc3c[nH]c4ccccc34)c3ncn(C(C)C)c3n2)c1,87.4,74.2,57.6,38.3,75.1,78.7,60,42,96.3,81.4,67.4,87.1,85.2,82.2,85.5,"viability, T/C [10]: 12.1%; viability, T/C [11]: 0.58%; viability, T/C [16]: 13%; viability, T/C [17]: 0.65%; viability, T/C [21]: 31.9%; viability, T/C [22]: 11.4%; viability, T/C [23]: 0.72%; viability, T/C [26]: 69.8%; viability, T/C [27]: 38.3%; viability, T/C [28]: 9.78%; viability, T/C [29]: 1.22%; viability, T/C [32]: 63.5%; viability, T/C [33]: 38.1%; viability, T/C [34]: 8.35%; viability, T/C [35]: 1.86%"
> 100,> 100,> 100,> 100,> 100,Cn1ncnc1C1c2n[nH]c(=O)c3cc(F)cc(c23)NC1c1ccc(F)cc1 (configuration not stated) + CC(CO)NC(=O)c1cc(-c2ccc(Cl)cc2)nn(-c2cnn(C)c2)c1=O,113,103,,,101,105,,,114,109,,103,107,108,104,"viability, T/C (second compound 0.1 µM, first compound 0.000316 µM): 111%; viability, T/C (second compound 0.1 µM, first compound 0.001 µM): 107%; viability, T/C [36]: 103%; viability, T/C [37]: 102%; viability, T/C (second compound 0.316 µM, first compound 0.000316 µM): 104%; viability, T/C (second compound 0.316 µM, first compound 0.001 µM): 109%; viability, T/C [38]: 102%; viability, T/C [39]: 99.2%; viability, T/C (second compound 1 µM, first compound 0.000316 µM): 113%; viability, T/C (second compound 1 µM, first compound 0.001 µM): 112%; viability, T/C [40]: 104%; viability, T/C [41]: 105%; viability, T/C (second compound 3.16 µM, first compound 0.000316 µM): 106%; viability, T/C (second compound 3.16 µM, first compound 0.001 µM): 119%; viability, T/C [42]: 118%; viability, T/C [43]: 104%; viability, T/C (second compound 10 µM, first compound 0.000316 µM): 122%; viability, T/C (second compound 10 µM, first compound 0.001 µM): 111%; viability, T/C [44]: 110%; viability, T/C [45]: 103%"
545,528,458,414,330,COc1cccc2c1C(=O)c1c(O)c3c(c(O)c1C2=O)CC(O)(C(=O)CO)CC3OC1CC(N)C(O)C(C)O1 (configuration not stated) + Cc1cncc(-c2nc(NCCc3c[nH]c4ccccc34)c3ncn(C(C)C)c3n2)c1,117,102,72.1,27.3,109,115,77.3,15.7,110,106,66.3,119,95.9,94.2,77.8,"viability, T/C [10]: 2.2%; viability, T/C [11]: 2.04%; viability, T/C [16]: 0.7%; viability, T/C [17]: 1.46%; viability, T/C [21]: 15.6%; viability, T/C [22]: 0.61%; viability, T/C [23]: 3.01%; viability, T/C [26]: 66.2%; viability, T/C [27]: 6.46%; viability, T/C [28]: 1.24%; viability, T/C [29]: 2.12%; viability, T/C [32]: 53.6%; viability, T/C [33]: 2.32%; viability, T/C [34]: 0.59%; viability, T/C [35]: 1.88%"
